# Key:
# Assay type in all cases: functional, organism-based
# Rattus norvegicus [1] = test: Carcinogenic activity on all sites after oral administration
# Rattus norvegicus [2] = test: Carcinogenic activity on breast after oral administration
# Rattus norvegicus [3] = test: Carcinogenic activity on mixed data after oral administration
# Rattus norvegicus [4] = test: Carcinogenic activity on all sites after subcutaneous administration
# Rattus norvegicus [5] = test: Carcinogenic activity on other sites after subcutaneous administration
# Rattus norvegicus [6] = test: Carcinogenic activity on other sites after oral administration
# Rattus norvegicus [7] = test: Carcinogenic activity on breast after oral administration of the compound
# Rattus norvegicus [8] = test: Carcinogenic activity on liver after oral administration
# Rattus norvegicus [9] = test: Carcinogenic activity on ear duct after oral administration
SMILES,Activity (Rattus norvegicus [1]),Activity (Rattus norvegicus [2]),Activity (Rattus norvegicus [4]),Activity (Rattus norvegicus [5]),other results
N/C(=N\O)c1ccc([N+](=O)[O-])o1,Carcinogenic activity,Carcinogenic activity,,,Activity (Rattus norvegicus [3]): Carcinogenic activity
Nc1ccc2c(ccc3ccccc32)c1,Carcinogenic activity,Carcinogenic activity,,,
CC(=O)ON(C(C)=O)c1cccc2ccc3ccccc3c12,,,Carcinogenic activity,Carcinogenic activity,
Cc1ccc(/N=N/c2cc(C)ccc2N)cc1,,Carcinogenic activity,,,
Nc1ccc(-c2ccccc2)cc1,Carcinogenic activity,Carcinogenic activity,,,
Cc1ccc(C)c(-c2ccc(N)cc2C)c1,,,Carcinogenic activity,Carcinogenic activity,
NNc1nc(-c2ccc([N+](=O)[O-])o2)cs1,Carcinogenic activity,Carcinogenic activity,,,
CC(=O)ON(C(C)=O)c1ccc(-c2ccccc2)cc1,,,Carcinogenic activity,Carcinogenic activity,
O=CNNc1nc(-c2ccc([N+](=O)[O-])o2)cs1,Carcinogenic activity,Carcinogenic activity,,,Activity (Rattus norvegicus [6]): Carcinogenic activity
Cc1cc(/C=C/c2ccccc2)ccc1N,,,Carcinogenic activity,Carcinogenic activity,
NNc1nc(-c2ccc([N+](=O)[O-])cc2)cs1,Carcinogenic activity,Carcinogenic activity,,,
CN(C)c1ccc2c(c1)Cc1ccccc1-2,Carcinogenic activity,,,,Activity (Rattus norvegicus [7]): Carcinogenic activity; Activity (Rattus norvegicus [3]): Carcinogenic activity; Activity (Rattus norvegicus [8]): Carcinogenic activity; Activity (Rattus norvegicus [9]): Carcinogenic activity; Activity (Rattus norvegicus [6]): Carcinogenic activity
COc1cc(N)ccc1-c1ccccc1,,,Carcinogenic activity,Carcinogenic activity,
CNc1ccc2c(c1)Cc1ccccc1-2,Carcinogenic activity,,,,Activity (Rattus norvegicus [7]): Carcinogenic activity; Activity (Rattus norvegicus [3]): Carcinogenic activity; Activity (Rattus norvegicus [8]): Carcinogenic activity; Activity (Rattus norvegicus [9]): Carcinogenic activity; Activity (Rattus norvegicus [6]): Carcinogenic activity
Cc1cc(C)c(-c2ccc(N)cc2C)c(C)c1,,,Carcinogenic activity,Carcinogenic activity,
Nc1cccc2c1ccc1ccccc12,Carcinogenic activity,Carcinogenic activity,,,
Nc1ccc(/C=C/c2ccc(N)c(Cl)c2)cc1Cl,,,Carcinogenic activity,Carcinogenic activity,
Nc1ccc(/C=C/c2ccccc2)cc1,Carcinogenic activity,Carcinogenic activity,,,Activity (Rattus norvegicus [9]): Carcinogenic activity
Cc1cc(N)ccc1/C=C/c1ccccc1,,,Carcinogenic activity,Carcinogenic activity,
[O-][n+]1ccc(NO)c2ccccc21,Carcinogenic activity,Carcinogenic activity,,,Activity (Rattus norvegicus [6]): Carcinogenic activity
CC(=O)N(OC(=O)c1ccccc1)c1ccc2c(c1)Cc1ccccc1-2,,,Carcinogenic activity,Carcinogenic activity,
Cc1cc(-c2ccccc2C)ccc1N,Carcinogenic activity,Carcinogenic activity,,,Activity (Rattus norvegicus [3]): Carcinogenic activity; Activity (Rattus norvegicus [9]): Carcinogenic activity; Activity (Rattus norvegicus [6]): Carcinogenic activity
CC(=O)Nc1ccc2c(c1)Cc1cc(NC(C)=O)ccc1-2,Carcinogenic activity,,,,Activity (Rattus norvegicus [7]): Carcinogenic activity; Activity (Rattus norvegicus [3]): Carcinogenic activity; Activity (Rattus norvegicus [8]): Carcinogenic activity; Activity (Rattus norvegicus [9]): Carcinogenic activity; Activity (Rattus norvegicus [6]): Carcinogenic activity
CC(=O)ON(C(C)=O)c1ccc2c(c1)Cc1ccccc1-2,,,Carcinogenic activity,Carcinogenic activity,

# — ChEMBL document CHEMBL1121791, “Computer-assisted structure-activity studies of chemical carcinogens. Aromatic amines” (J Med Chem, 1981)
